# Target: 15-PGDH/HPGD (Homo sapiens (Human), UniProt P15428)
# Test: hPGDH inhibitor screening biochemical assay
# Details: 10 nM 15-PGDH/HPGD, 15 μM PGE2, 0.25 mM NAD; read-out: hPGDH: Average IC50
# Protocol: A hydroxyprostaglandin dehydrogenase inhibition screening biochemical assay can be performed to assess the synthesized inhibitors provided herein. Provided herein is an exemplary biochemical assay for hPGDH inhibitor screening.
# The in vitro biochemical assay can be performed in white, 384 plates in total 20 μl reaction volume consisting of 10 nM of 15-PGDH/HPGD (R&D System #5660-DH), 15 μM Prostaglandin E2 (Sigma, Cat #P5640-10MG) and 0.25 mM β-Nicotinamide adenine dinucleotide sodium salt (Sigma, Cat #N0632-5G) made in reaction buffer (50 mM Tris-HCl, pH 7.5, 0.01% Tween 20) at 10-point dose response curve for test/tool compounds. Briefly, 5 μl (4×) of compounds solution and 5 μl (final concentration, 10 nM) of enzyme solution is added to white 384 well plates and incubated for 10 mins at 37° C. 5 μl (4×) of Prostaglandin E2 and 5 μl (4×) of β-Nicotinamide adenine dinucleotide sodium salt is added to the wells and incubated for 10 mins at rt. Fluorescence is recorded at ex/em=340 nm/485 nm. The percentage (%) inhibition of enzyme activity was determined relative to […] (1% DMSO) and IC50 was calculated using GraphPad prism software (four parameter-variable slope equation).
# Sequence of 15-PGDH/HPGD (P15428 whole entry): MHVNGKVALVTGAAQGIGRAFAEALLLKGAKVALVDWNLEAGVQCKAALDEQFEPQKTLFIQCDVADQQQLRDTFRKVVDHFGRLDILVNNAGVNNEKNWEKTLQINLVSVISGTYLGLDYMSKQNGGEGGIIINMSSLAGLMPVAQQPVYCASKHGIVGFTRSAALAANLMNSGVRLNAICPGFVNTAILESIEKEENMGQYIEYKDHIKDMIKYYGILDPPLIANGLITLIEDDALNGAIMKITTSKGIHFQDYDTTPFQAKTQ
row,Structure (SMILES),IC50 [nM]
1,O=C(c1cnc2c(c1)ncn2-c1ccc(OC(F)(F)F)cc1)N1CCCCC1 [A-182],< 100
2,CCOc1ccc(-n2cnc3cc(C(=O)N4CCCCC4)cnc32)cc1 [A-186],< 100
3,N#Cc1ccc(-n2cnc3cc(C(=O)N4CCC(F)(F)CC4)cnc32)cc1 [A-193],< 100
4,N#Cc1ccc(-n2cnc3cc(C(=O)N4CC(Cl)C4)cnc32)cc1 [A-194],< 100
5,NC(=O)c1ccc(-n2cnc3cc(C(=O)N4CCC(F)(F)CC4)cnc32)cc1 [A-195],< 100
6,COc1ccc(-n2c(C)nc3cc(C(=O)N4CCCCC4)cnc32)cc1 [A-197],< 100
7,COc1ccc(-n2c(CCNC(C)=O)nc3cc(C(=O)N4CCC(F)CC4)cnc32)cc1 [A-198],≥ 1000
8,"Cc1c(C(=O)N2CCC(F)CC2)cnc2c1ccn2-c1ccc(C(N)=O)cc1 [A-202, 4-(5-(4-fluoropiperidine-1-carbonyl)-4-methyl-1H-pyrrolo[2,3-b]pyridin-1-yl)benzamide]",< 100
9,"NC(=O)c1ccc(-n2cc(Cl)c3cc(C(=O)N4CCC(F)CC4)cnc32)cc1 [A-203, 4-(3-chloro-5-(4-fluoropiperidine-1-carbonyl)-1H-pyrrolo[2,3-b]pyridin-1-yl)benzamide]",< 100
10,"NC(=O)c1ccc(-n2cc(Cl)c3cc(C(=O)N4CCCCC4)cnc32)cc1 [A-204, 4-(3-chloro-5-(piperidine-1-carbonyl)-1H-pyrrolo[2,3-b]pyridin-1-yl)benzamide]",< 100
11,"Cc1c(C(=O)N2CCC(F)CC2)cnc2c1ccn2-c1ccc(C#N)cc1 [A-206, 4-(5-(4-fluoropiperidine-1-carbonyl)-4-methyl-1H-pyrrolo[2,3-b]pyridin-1-yl)benzonitrile]",< 100
12,N#Cc1ccc(-n2cc(Cl)c3cc(C(=O)N4CCC(F)CC4)cnc32)cc1 [A-207],< 100
13,Cc1cc(-n2ccc3cc(C(=O)N4CCCCC4)cnc32)cnc1N [A-208],< 100
14,Nc1ncc(-n2ccc3cc(C(=O)N4CCCCC4)cnc32)cc1Cl [A-209],< 100
15,"C[C@@H]1C[C@H](C)CN(C(=O)c2cnc3c(ccn3-c3ccc(C(N)=O)cc3)c2)C1 [A-210, 4-(5-((3R,5S)-3,5-dimethylpiperidine-1-carbonyl)-1H-pyrrolo[2,3-b]pyridin-1-yl)benzamide]",< 100
16,O=C(c1cnc2c(ccn2-c2ccc3[nH]ncc3c2)c1)N1CCC(F)(F)CC1 [A-211],< 100
17,N/C(=N\O)c1ccc(-n2ccc3cc(C(=O)N4CCCCC4)cnc32)cc1 [A-212],< 100
18,N/C(=N\O)c1cccc(-n2ccc3cc(C(=O)N4CCCCC4)cnc32)c1 [A-213],< 100
19,Cc1nc(-c2cccc(-n3ccc4cc(C(=O)N5CCCCC5)cnc43)c2)no1 [A-214],< 100
20,"CC(C)(C)C(=O)NCCNC(=O)c1ccc(-n2ccc3cc(C(=O)N4CCC(F)(F)CC4)cnc32)cc1 [A-215, 4-(5-(4,4-difluoropiperidine-1-carbonyl)-1H-pyrrolo[2,3-b]pyridin-1-yl)-N-(2-pivalamidoethyl)benzamide]",< 100
21,CC(C)NC(=O)c1ccc(-n2ccc3cc(C(=O)N4CCC(F)(F)CC4)cnc32)cc1 [A-216],< 100
22,"CC(C)(C)CNC(=O)c1cncc(-n2ccc3cc(C(=O)N4CCC(F)(F)CC4)cnc32)c1 [A-217, 5-(5-(4,4-difluoropiperidine-1-carbonyl)-1H-pyrrolo[2,3-b]pyridin-1-yl)-N-neopentylnicotinamide]",< 100
23,"CC(C)(C)NC(=O)c1ccc(-n2ccc3cc(C(=O)N4CCC(F)(F)CC4)cnc32)cn1 [A-218, N-(tert-butyl)-5-(5-(4,4-difluoropiperidine-1-carbonyl)-1H-pyrrolo[2,3-b]pyridin-1-yl)picolinamide]",< 100
24,"CCC(CC)NC(=O)c1cncc(-n2ccc3cc(C(=O)N4CCC(F)(F)CC4)cnc32)c1 [A-219, 5-(5-(4,4-difluoropiperidine-1-carbonyl)-1H-pyrrolo[2,3-b]pyridin-1-yl)-N-(pentan-3-yl)nicotinamide]",< 100

row,Structure (SMILES),IC50 [nM]
1,"CS(=O)(=O)NCCNC(=O)c1ccc(-n2ccc3cc(C(=O)N4CCC(F)(F)CC4)cnc32)cc1 [A-220, 4-(5-(4,4-difluoropiperidine-1-carbonyl)-1H-pyrrolo[2,3-b]pyridin-1-yl)-N-(2-(methylsulfonamido)ethyl)benzamide]",< 100
2,"NCCNC(=O)c1ccc(-n2ccc3cc(C(=O)N4CCC(F)(F)CC4)cnc32)cc1 [A-221, N-(2-aminoethyl)-4-(5-(4,4-difluoropiperidine-1-carbonyl)-1H-pyrrolo[2,3-b]pyridin-1-yl)benzamide]",< 100
3,O=C(NC(CO)CO)c1ccc(-n2ccc3cc(C(=O)N4CCC(F)(F)CC4)cnc32)cc1 [A-222],< 100
4,O=C(NCCO)c1ccc(-n2ccc3cc(C(=O)N4CCC(F)(F)CC4)cnc32)cc1 [A-223],< 100
5,"N#Cc1ccc(-n2ccc3cc(C(=O)N4C[C@H](F)C[C@H](F)C4)cnc32)cc1 [A-224, 4-(5-((3R,5S)-3,5-difluoropiperidine-1-carbonyl)-1H-pyrrolo[2,3-b]pyridin-1-yl)benzonitrile]",< 100
6,CCNC(=O)c1ccc(-n2ccc3cc(C(=O)N4CCC(F)(F)CC4)cnc32)cc1 [A-225],< 100
7,O=C(NC1CCNCC1)c1ccc(-n2ccc3cc(C(=O)N4CCC(F)(F)CC4)cnc32)cc1 [A-226],< 100
8,O=C(NC1CNC1)c1ccc(-n2ccc3cc(C(=O)N4CCC(F)(F)CC4)cnc32)cc1 [A-227],< 100
9,"O=C(O)Cc1ccc(-n2ccc3cc(C(=O)N4CCC(F)(F)CC4)cnc32)cc1 [A-230, 2-(4-(5-(4,4-difluoropiperidine-1-carbonyl)-1H-pyrrolo[2,3-b]pyridin-1-yl)phenyl)acetic acid]",< 100
10,"CS(=O)(=O)NC(=O)c1ccc(-n2ccc3cc(C(=O)N4CCC(F)(F)CC4)cnc32)cc1 [A-232, 4-(5-(4,4-difluoropiperidine-1-carbonyl)-1H-pyrrolo[2,3-b]pyridin-1-yl)-N-(methylsulfonyl)benzamide]",< 100
11,O=C(NC1(C(=O)O)CC1)c1ccc(-n2ccc3cc(C(=O)N4CCC(F)(F)CC4)cnc32)cc1 [A-233],< 100
12,"O=C(NC1(C(=O)O)CC1)c1ccc(-n2ccc3cc(C(=O)N4CCC(F)(F)CC4)cnc32)cn1 [A-234, 1-(5-(5-(4,4-difluoropiperidine-1-carbonyl)-1H-pyrrolo[2,3-b]pyridin-1-yl)picolinamido)cyclopropane-1-carboxylic acid]",< 100
13,CC(C)(CC(=O)O)NC(=O)c1ccc(-n2ccc3cc(C(=O)N4CCC(F)(F)CC4)cnc32)cc1 [A-235],< 100
14,O=C(O)[C@@H]1CCCN1C(=O)c1ccc(-n2ccc3cc(C(=O)N4CCC(F)(F)CC4)cnc32)cc1 [A-236],< 100
15,"CCC(CC)NC(=O)c1ccc(-n2ccc3cc(C(=O)N4CCC(F)(F)CC4)cnc32)cn1 [A-239, 5-(5-(4,4-difluoropiperidine-1-carbonyl)-1H-pyrrolo[2,3-b]pyridin-1-yl)-N-(pentan-3-yl) picolinamide]",< 100
16,"CC(C)(C)CNC(=O)c1ccc(-n2ccc3cc(C(=O)N4CCC(F)(F)CC4)cnc32)cn1 [A-240, 5-(5-(4,4-difluoropiperidine-1-carbonyl)-1H-pyrrolo[2,3-b]pyridin-1-yl)-N-neopentylpicolinamide]",< 100
17,"N#Cc1ccc(-n2ccc3cc(C(=O)N4CCC(F)(F)CC4)cnc32)cc1 [A-241, 4-(5-(4,4-difluoropiperidine-1-carbonyl)-1H-pyrrolo[2,3-b]pyridin-1-yl)benzonitrile]",< 100
18,N#Cc1ccc(-n2ccc3cc(C(=O)N4CCC(F)(F)CC4)cnc32)cc1O [A-243],< 100
19,"CC(C)(O)CCc1cc2cc(C(=O)N3CCC(F)(F)CC3)cnc2n1-c1ccc(C#N)cc1 [A-244, 4-(5-(4,4-difluoropiperidine-1-carbonyl)-2-(3-hydroxy-3-methylbutyl)-1H-pyrrolo[2,3-b]pyridin-1-yl)benzonitrile]",< 100
20,"CC(C)(C)NC(=O)c1cncc(-n2ccc3cc(C(=O)N4CCC(F)(F)CC4)cnc32)c1 [A-246, N-(tert-butyl)-5-(5-(4,4-difluoropiperidine-1-carbonyl)-1H-pyrrolo[2,3-b]pyridin-1-yl)nicotinamide]",< 100
21,"NC(=O)[C@@H]1CCCN1C(=O)c1ccc(-n2ccc3cc(C(=O)N4CCC(F)(F)CC4)cnc32)cc1 [A-248, (S)-1-(4-(5-(4,4-difluoropiperidine-1-carbonyl)-1H-pyrrolo[2,3-b]pyridin-1-yl)benzoyl)pyrrolidine-2-carboxamide]",< 100
22,O=C(c1ccc(-n2ccc3cc(C(=O)N4CCC(F)(F)CC4)cnc32)cc1)N(CCO)CCO [A-249],< 100
23,"O=C(c1cnc2c(ccn2-c2ccc(-c3nnn[nH]3)nc2)c1)N1CCC(F)(F)CC1 [A-250, (1-(6-(1H-tetrazol-5-yl)pyridin-3-yl)-1H-pyrrolo[2,3-b]pyridin-5-yl)(4,4-difluoropiperidin-1-yl)methanone]",< 100
24,"O=C(c1cnc2c(ccn2-c2cncc(-c3nnn[nH]3)c2)c1)N1CCC(F)(F)CC1 [A-251, (1-(5-(1H-tetrazol-5-yl)pyridin-3-yl)-1H-pyrrolo[2,3-b]pyridin-5-yl)(4,4-difluoropiperidin-1-yl)methanone]",< 100

# Source: patent publication US20230390274A1 (EPIRIUM BIO INC., priority 2020, published 2023)
